Assay results published in PMC12704579, “New Anticancer 4‐Aryldihydropyrimidinone‐5‐Carboxylates Targeting Hsp90” (Chemical Biology & Drug Design, 2025).

Legend:
MDA-MB-231 cells [1] = assay: CellTiter-Blue cell viability assay, MDA-MB-231 (24 h); type: cell-based, human; settings: for GI50 / viability at 10 µM: Homo sapiens, MDA-MB-231, 24 h; for GI50: 24 h incubation time
Procedure: (§1) Human Embryonic Kidney cells (HEK‐293) and human breast cancer cells (MCF‐7, MDA‐MB‐231 and HCC1954) were cultured in complete growth media: […] 1X (Gibco); 10% v/v Fetal Bovine Serum (FBS, Sigma Dorset UK) and L‐glutamine (2 mM, Invitrogen). SW‐480‐WT cells were maintained in selective media made up of Dulbecco's Modified Eagle Medium (Gibco), enriched with […] of Geneticin Selective Antibiotic (G418 Sulfate; Gibco, Thermo Fisher). Cells were incubated at a 5% CO2 atmosphere at 37°C.
(§2) Cells were cultured in 96‐well plates in 90 μL at a seeding density of 1 × 10^6 cells per well. Compound samples were prepared at different concentrations (1 mM, 100 μM, 10 μM, 1 μM, 100 nM, 10 nM) and 10 μL of each concentration was seeded in each well. Two different negative controls were used: DMSO 0.01% and 0.001%. Paclitaxel (30% w/v) was used as a positive control. Cells were treated for 24 h after which 20 μL of CellTitre‐Blue reagent (Promega, Southampton, UK) was added and incubated for 2 h at 37°C in 5% CO2. Fluorescence was measured at 560/590 nm on a Fluorostar Optima plate reader (BMG Labtech, Bucks, UK). Assay end points were normalised to 0% (DMSO only) and fitted to a semilog plot using at least n = 3 technical replicates (n = 6 for DMSO control and paclitaxel control) and N = 3 independent replicates. The curve fit was performed using the GraphPad Prism software and the standard Hill equation.
In view of previous reports on Hsp90 inhibitors and their effects on cancer cell viability (Eachkoti et al. [2014]) and clonogenicity (Kinzel et al. [2016]), new compounds were tested for inhibition of cell viability within both non‐tumourigenic (HEK‐293) and breast cancer cell lines (MDA‐MB‐231) at a fixed concentration of 10 μM. The well‐established CellTiter‐Blue endpoint assay was used to assess cell viability. New compounds were also assessed in a colony forming assay (MCF‐7 breast cancer cell line), used as an efficacy screening to provide an indication of the inhibition of clonogenicity for these small molecules (Table 1).

[2] = Human microsomal stability (Cyprotex); type: in vitro ADME; settings: human microsomes; for microsomal CLint: read-out: Metabolic stability (human microsomes) CLint; for half-life: read-out: Metabolic stability (human microsomes) Half-life
Procedure: (§3) All the selected analogues were calculated to be compliant with the Lipinski rule‐of‐five guidelines for oral bioavailability. Furthermore, in vitro ADME (absorption, distribution, metabolism, excretion) properties were assessed as an outsourced service (Cyprotex Discovery Ltd., UK; part of the EvoTec Group); profiling membrane permeability (Caco‐2 cell model), hERG channel cardiotoxicity, human microsomal stability and turbidometric solubility (Table 4).

MDA-MB-231 cells [3] = assay: Colony forming assay, MDA-MB-231; type: cell-based, human
Procedure: as §1
(§4) Cells were seeded in a 12‐well plate at 400 cells per well. One hour after the seeding of the cells, compounds (1 mM, 100 μM, 10 μM, 1 μM, 100 nM, 10 nM) or vehicle were added into the wells in triplicate (DMSO vehicle 0.1% and 1%). After 7 days, colonies were stained with 350 μL of crystal violet solution, incubated for 30 min at room temperature, then wells were washed in water and dried. At least the best 3 independent experiments out of 5 independent repeats were used to perform the statistical analysis of the results. Colonies were counted by GelCount Colony Counter (Oxford Optronix Ltd.) using the GelCount 1.1.8.0 software. Assay end points were normalised to 0% (DMSO only) and fitted to a semi‐log plot using at least n = 3 technical replicates (n = 6 for DMSO control and N = 3 independent replicates). The curve fit was performed using GraphPad Prism. […]

SKBR3 cells = assay: Colony forming assay, SKBR3; type: cell-based, human; settings: 7 days treatment at 10 μM
Procedure: (§5) Cells were seeded in a 12‐well plate at 400 cells per well. One hour after the seeding of the cells, compounds (1 mM, 100 μM, 10 μM, 1 μM, 100 nM, 10 nM) or vehicle were added into the wells in triplicate (DMSO vehicle 0.1% and 1%). After 7 days, colonies were stained with 350 μL of crystal violet solution, incubated for 30 min at room temperature, then wells were washed in water and dried. At least the best 3 independent experiments out of 5 independent repeats were used to perform the statistical analysis of the results. Colonies were counted by GelCount Colony Counter (Oxford Optronix Ltd.) using the GelCount 1.1.8.0 software. Assay end points were normalised to 0% (DMSO only) and fitted to a semi‐log plot using at least n = 3 technical replicates (n = 6 for DMSO control and N = 3 independent replicates). The curve fit was performed using GraphPad Prism.
(§6) Compound 5d was screened for the ability to inhibit colony formation in additional human cancer cell lines (Table 3). […] Sub‐micromolar IC50 values in HCC1954 and MDA‐MB‐231 cells were derived by testing over a six‐fold log concentration range. To further extend the profile of activity, the effect of 5d on the colorectal adenocarcinoma cell line SW‐480 was studied, with similarly potent effects on colony viability (Table 3).

hERG channel = target: T1, hERG channel (Homo sapiens, UniProt Q12809); assay: hERG channel cardiotoxicity assay (Cyprotex)
T1 construct: Cyprotex Discovery Ltd., UK
Procedure: as §3

BT474 cells = assay: Colony forming assay, BT474; type: cell-based, human; settings: 7 days treatment at 10 μM
Procedure: as §5, §6

HCC1954 cells = assay: Colony forming assay, HCC1954; type: cell-based, human
Procedure: as §1, §4

[4] = system: HCC1954, MCF-7 and HEK-293 cells; assay: Growth inhibition assay (CellTitre-Blue endpoint), 72 h incubation; type: cell-based, human; settings: paclitaxel positive control, Figure 3
Procedure: as §2, with “equation. […]” for “equation.”
FIGURE 3 Growth inhibition assay (CellTitre‐Blue endpoint) in human breast cancer cell lines HCC1954 and MCF‐7, and non‐tumorigenic HEK‐293 cells for hit compounds 5d and 5e (72 h incubation). Growth inhibition is represented by the percentage of relative fluorescence units standardised to DMSO control. […]

SW-480 cells = assay: Colony forming assay, SW-480; type: cell-based, human
Procedure: as §1, §4

[5] = Caco-2 membrane permeability (Cyprotex); type: in vitro ADME; settings: human, Caco-2
Procedure: as §3

Caco-2 cell model = assay: Caco-2 membrane permeability (Cyprotex); type: in vitro ADME
Procedure: as §3

[6] = CellTiter-Blue, 24 h incubation, 10 μM test compound, standardised to DMSO control

T1 sequence (Q12809 whole entry): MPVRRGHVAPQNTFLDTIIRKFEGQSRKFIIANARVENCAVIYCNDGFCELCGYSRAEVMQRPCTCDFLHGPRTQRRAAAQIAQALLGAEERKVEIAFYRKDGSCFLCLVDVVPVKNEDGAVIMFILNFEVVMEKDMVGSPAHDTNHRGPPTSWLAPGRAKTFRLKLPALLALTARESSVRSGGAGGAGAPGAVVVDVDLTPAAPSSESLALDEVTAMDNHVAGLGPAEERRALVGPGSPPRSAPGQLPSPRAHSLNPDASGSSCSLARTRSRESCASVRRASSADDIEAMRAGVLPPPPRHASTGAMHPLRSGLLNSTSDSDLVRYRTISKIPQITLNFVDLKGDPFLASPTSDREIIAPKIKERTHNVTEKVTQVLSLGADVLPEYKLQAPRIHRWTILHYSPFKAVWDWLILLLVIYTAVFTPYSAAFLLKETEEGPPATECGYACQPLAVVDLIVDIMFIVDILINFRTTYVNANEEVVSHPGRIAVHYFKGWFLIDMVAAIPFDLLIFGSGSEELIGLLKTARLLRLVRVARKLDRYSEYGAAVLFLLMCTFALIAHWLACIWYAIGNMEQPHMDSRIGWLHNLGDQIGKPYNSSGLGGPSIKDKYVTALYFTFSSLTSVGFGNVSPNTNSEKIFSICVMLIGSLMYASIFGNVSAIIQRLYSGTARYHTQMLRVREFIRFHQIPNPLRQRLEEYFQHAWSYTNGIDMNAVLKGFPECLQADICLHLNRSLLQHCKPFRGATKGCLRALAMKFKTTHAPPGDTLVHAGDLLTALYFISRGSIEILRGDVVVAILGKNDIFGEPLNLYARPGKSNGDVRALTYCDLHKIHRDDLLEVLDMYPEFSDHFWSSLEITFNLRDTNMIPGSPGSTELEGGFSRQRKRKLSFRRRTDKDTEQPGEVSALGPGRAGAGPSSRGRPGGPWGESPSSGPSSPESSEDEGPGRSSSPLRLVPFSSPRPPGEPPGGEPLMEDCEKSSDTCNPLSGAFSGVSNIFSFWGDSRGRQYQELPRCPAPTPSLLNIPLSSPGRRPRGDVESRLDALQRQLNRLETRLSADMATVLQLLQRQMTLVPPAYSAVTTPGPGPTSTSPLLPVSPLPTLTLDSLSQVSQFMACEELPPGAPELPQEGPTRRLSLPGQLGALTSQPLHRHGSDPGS

Compound	GI50 (MDA-MB-231 cells [1]) [µM]	viability at 10 µM (MDA-MB-231 cells [1]; [6]) [%]	microsomal CLint [2] [µL/min/mg]	half-life [2] [min]	Percentage of surviving colonies, MDA-MB-231 (MDA-MB-231 cells [3]; 7 days treatment at 10 μM)	IC50 (MDA-MB-231 cells [3]; Homo sapiens, MDA-MB-231, read-out: Colony formation IC50, MDA-MB-231) [µM]	Percentage of surviving colonies, SKBR3 (SKBR3 cells)	IC50 (hERG channel) [µM]	Percentage of surviving colonies, BT474 (BT474 cells)	Percentage of surviving colonies, HCC1954 (HCC1954 cells; 7 days treatment at 10 μM)	IC50 (HCC1954 cells; Homo sapiens, HCC1954, read-out: Colony formation IC50, HCC1954) [µM]	Growth inhibitory effect / effect on cell viability, longer incubation [4]	Percentage of surviving colonies, SW-480 (SW-480 cells; 7 days treatment at 10 μM)	IC50 (SW-480 cells; Homo sapiens, SW480, read-out: Colony formation IC50, SW-480) [µM]	efflux ratio [5]	Caco-2 permeability Efflux ratio (Caco-2 cell model)	% Viability (MDA-MB-231, 10 μM) (MDA-MB-231 cells [1]; CellTiter-Blue, 24 h incubation, 10 μM test compound, standardised to DMSO control, 10 µM) [%]
COc1ccc(C2NC(=O)NC(C)=C2C(=O)OCc2ccc3c(c2)OCO3)c(F)c1 (stereo not shown) [Compound 5d, Benzo[d][1,3]dioxol‐5‐ylmethyl‐4‐(2‐Fluoro‐4‐Methoxyphenyl)‐6‐Methyl‐2‐Oxo‐1,2,3,4‐Tetrahydropyrimidine‐5‐Carboxylate]	79.3	86.3 ± 3.8	34.6	40.1	11.9% ± 2.9	0.62	94.4% ± 2.1	> 25	80.4% ± 8.0	8.8% ± 4.0	0.56	devoid of significant effects on cell viability	57.9% ± 2.0	1.21	> 2	2.26	–
COc1ccc(COC(=O)C2=C(C)NC(=O)NC2c2ccc(Cl)cc2)cc1C (stereo not shown) [Compound 5e, 4‐Methoxy‐3‐Methylbenzyl‐4‐(4‐Chlorophenyl)‐6‐Methyl‐2‐Oxo‐1,2,3,4‐Tetrahydropyrimidine‐5‐Carboxylate]	12.6	< 80	108	12.8	–	–	–	> 25	–	–	–	comparable to the cytotoxic drug control paclitaxel	–	–	> 2	2.74	79.43 ± 8.8
